Results reported in patent US11718628B2, “SREBP inhibitors comprising a 6-membered central ring” (Capulus Therapeutics, LLC, priority 2018, dated 2023).
Values after ≈ are worked out from the molar mass of the structure shown.

How the values were obtained:
[1] = Half-life in mouse liver microsomes; assay type: in vitro ADME; conditions: mouse, liver microsomes, read-out: H: half-life of mouse liver microsomes
Procedure: (§1) Half-life Human Microsomes: Compounds were evaluated for stability in human liver microsomes. A 10 mM stock solution of the compound being evaluated was prepared in DMSO and diluted with water:acetonitrile (1:1) to a concentration of 1 mM. A working concentration of 100 μM was prepared by further dilution with water:acetonitrile (1:1). To make the preincubation mixture, 2.5 μL of the diluted compound was combined with 75 μL of human liver microsomes at 3.33 mg/mL, and 85 μL of 100 mM potassium phosphate buffer, and this mixture was pre-incubated for 10 min at 37° C. To make the 60 minute mixture without cofactor, 32.5 μL of the preincubation mixture was combined with 17.5 μL of 100 mM potassium phosphate buffer and incubated for 60 min at 37° C. To make the 0 min sample with cofactor (NADPH), 16.25 μL of the preincubation mixture was combined with 200 μL of acetonitrile containing internal standard and 8.75 μL of cofactor (NADPH). To make the incubation mixture, 62 μL of cofactor (2.85 mM) was combined with the remaining incubation mixture, and incubated for 60 min at 37° C. To prepare the sample mixture to be evaluated, 25 μL incubation mixture was combined with 200 μL of acetonitrile containing internal standard and vortexed for 5 min at 1200 rpm, then centrifuged for 10 min at 4000 rpm. The supernatant was diluted 2 fold with water and injected on LC-MS/MS. The sample mixture was evaluated by LC-MS/MS using 10 mM ammonium acetate with 0.1% FA as the aqueous mobile phase, and methanol as the organic mobile phase.
Half-life Mouse Microsomes: Compounds were evaluated in mouse liver microsomes following a similar procedure as described above for human liver microsomes. A similar procedure could be used to evaluate compounds in rat liver microsomes.

[2] = Half-life in human liver microsomes; assay type: in vitro ADME; conditions: human, liver microsomes, NADPH, 37° C., read-out: G: half-life human liver microsomes
Procedure: as §1

Kinetic solubility = assay type: physicochemical; conditions: aqueous buffer, kinetic from dmso stock, pH 7.4 buffer, room temperature, 1.0% DMSO, read-out: I: kinetic solubility class
Procedure: Kinetic Solubility Procedure: A 10 mM stock solution of a compound was prepared in DMSO, then 4 μL of the stock was added to a deep well plate containing 396 μL of pH 7.4 buffer. The sample plate was vortexed at 800 rpm for 24 h on thermomixer at room temperature. The plate was sealed well during the incubation process. The DMSO content in the sample was 1.0%. The concentration of the evaluated compound in the final incubation was 100 μM. At the end of the incubation period, the sample plate was centrifuged at 4000 rpm for 10 min and analyzed in LC-UV against a calibration curve (CC). Values <10 μg/mL=Low; 10 to 60 μg/mL=Medium; >60 μg/mL=High.

| SMILES | half-life at 1 µM [1] | half-life at 1 µM [2] | solubility kinetic at 24 h (Kinetic solubility) |
| --- | --- | --- | --- |
| CC(C)(C)c1cc(-c2cncc(-c3ccc(C(=O)N4CCC(O)CC4)cc3Cl)c2F)ccn1 | 39.2 min | 9.52 min | 10 to 60 µg/mL (≈ 21.4 to 128 µM) |
| CC(C)(C)c1cc(-c2cncc(-c3ccc(NC(=O)OCCN4CCCC4)cc3Cl)c2)ccn1 | 14.4 min | 53.2 min | 10 to 60 µg/mL (≈ 20.9 to 125 µM) |
| COc1ncc(-c2ccc(C(=O)N3CCC(O)CC3)cc2Cl)cc1-c1ccnc(C(C)(C)C)c1 | 38.5 min | 16.1 min | 10 to 60 µg/mL (≈ 20.8 to 125 µM) |
| Cc1ncc(-c2ccc(C(=O)N3CCC(O)CC3)cc2Cl)cc1-c1ccnc(C(C)(C)C)c1 | 41.7 min | 7.8 min | 10 to 60 µg/mL (≈ 21.6 to 129 µM) |
| O=C(Nc1ccc(-c2cncc(-c3ccnc4c3OCCO4)c2)c(Cl)c1)OC1CC1 | 16.4 min | 9.94 min | < 10 µg/mL |
| O=C(c1ccc(-c2cncc(-c3ccnc(C4CC4)c3)c2)c(Cl)c1)N1CCC(F)CC1 | 12.4 min | 7.28 min | 10 to 60 µg/mL (≈ 22.9 to 138 µM) |
| O=C(c1ccc(-c2cncc(-c3ccnc(C4CC4)c3)c2)c(Cl)c1)N1CCC[C@H]1CO | 66.7 min | 16.2 min | 10 to 60 µg/mL (≈ 23 to 138 µM) |
| O=C(c1ccc(-c2cncc(-c3ccnc(C4CC4)c3)c2)c(Cl)c1)N1CC[C@H](O)C1 | 87.2 min | 39.2 min | 10 to 60 µg/mL (≈ 23.8 to 143 µM) |
| O=C(c1ccc(-c2cncc(-c3ccnc(C4CC4)c3)c2)c(Cl)c1)N1CC2CCC(C1)C2O (stereo not drawn) | 42.4 min | 21.3 min | 10 to 60 µg/mL (≈ 21.7 to 130 µM) |
| CS(=O)(=O)Nc1ccc(-c2cncc(-c3ccnc4c3OCCO4)c2)c(Cl)c1 | 104 min | 37.4 min | < 10 µg/mL |
| CC(C)OC(=O)Nc1ccc(-c2cncc(-c3ccnc(C(C)(C)O)c3)c2)c(Cl)c1 | 120 min | 120 min | < 10 µg/mL |
| CC(C)(O)c1cc(-c2cncc(-c3ccc(NS(C)(=O)=O)cc3Cl)c2)ccn1 | 120 min | 116 min | < 10 µg/mL |
| CC(C)OC(=O)Nc1ccc(-c2cncc(-c3ccnc(C4(F)CCC4)c3)c2)c(Cl)c1 | 97.9 min | 55.9 min | < 10 µg/mL |
| O=C(c1ccc(-c2cncc(-c3ccnc(C4(O)CCC4)c3)c2)c(Cl)c1)N1CCC(O)CC1 | 120 min | 76.7 min | 10 to 60 µg/mL (≈ 21.6 to 129 µM) |
| CC(C)(C)c1cc(-c2cncc(-c3ccc(C(=O)N(CCCO)CCCO)cc3Cl)c2)ccn1 | 40.4 min | 9.51 min | 10 to 60 µg/mL (≈ 20.7 to 124 µM) |
| O=C(c1ccc(-c2cncc(-c3ccnc(C4(F)CCC4)c3)c2)c(Cl)c1)N1CCC(O)CC1 | 54.4 min | 32.3 min | 10 to 60 µg/mL (≈ 21.5 to 129 µM) |
| CS(=O)(=O)Nc1ccc(-c2cncc(-c3ccnc(C4CC4)c3)c2)c(Cl)c1 | 86.7 min | 112 min | < 10 µg/mL |
| CC(C)OC(=O)Nc1ccc(-c2cncc(-c3ccnc(C4CC4)c3)c2)c(Cl)c1 | 81.1 min | 120 min | < 10 µg/mL |
| CC(C)OC(=O)N(C)c1ccc(-c2cncc(-c3ccnc(C(C)(C)C)c3)c2)c(Cl)c1 | 105 min | 63.6 min | < 10 µg/mL |
| O=C(c1ccc(-c2cncc(-c3ccnc(C4CC4)c3)c2)c(Cl)c1)N1CCC(O)CC1 | 54.9 min | 36.5 min | 10 to 60 µg/mL (≈ 23 to 138 µM) |
| CC(C)(C)c1cc(-c2cncc(-c3ccc(NS(=O)(=O)CC(F)(F)F)cc3Cl)c2)ccn1 | > 120 min | 6.03 min | < 10 µg/mL |
| CC1(O)CCC(C(=O)c2ccc(-c3cncc(-c4ccnc(C(C)(C)CO)c4)c3)c(Cl)c2)CC1 (stereo not drawn) | 63.6 min | 10 min | 10 to 60 µg/mL (≈ 20.9 to 125 µM) |

Second part, the compound after the results:

| half-life at 1 µM [1] | half-life at 1 µM [2] | solubility kinetic at 24 h (Kinetic solubility) | SMILES |
| --- | --- | --- | --- |
| 68.3 min | 20.5 min | < 10 µg/mL | O=C(c1ccc(-c2cncc(-c3ccnc(C4CC4)c3)c2)c(Cl)c1)N1CCC(F)C(O)C1 (stereo not drawn) |
| 120 min | 27.7 min | 10 to 60 µg/mL (≈ 20.8 to 125 µM) | CC(C)(C)c1cc(-c2cncc(-c3ccc(C(=O)N4CCC(O)C(O)CC4)cc3Cl)c2)ccn1 (stereo not drawn) |
| 77.5 min | 41.3 min | 10 to 60 µg/mL (≈ 21.4 to 128 µM) | CC(C)(CF)c1cc(-c2cncc(-c3ccc(C(=O)N4CCC(O)CC4)cc3Cl)c2)ccn1 |
| 1.94 min | 11.2 min | 10 to 60 µg/mL (≈ 21.5 to 129 µM) | CC(C)(C)c1cc(-c2cncc(-c3ccc(C(=O)N4CCC(=O)C(F)C4)cc3Cl)c2)ccn1 (stereo not drawn) |
| 64.3 min | 14 min | 10 to 60 µg/mL (≈ 20.9 to 126 µM) | CC(C)(C)c1cc(-c2cncc(-c3ccc(C(=O)N4CCC[C@@H]4C(C)(C)O)cc3Cl)c2)ccn1 |
| 27.4 min | 16.8 min | 10 to 60 µg/mL (≈ 20.9 to 126 µM) | CC(C)(C)c1cc(-c2cncc(-c3ccc(C(=O)N4CCC[C@H]4C(C)(C)O)cc3Cl)c2)ccn1 |
| 98.5 min | 120 min | 10 to 60 µg/mL (≈ 21.4 to 128 µM) | CC(C)(C)c1cc(-c2cncc(-c3ccc(C(=O)N4CCC(O)C(F)C4)cc3Cl)c2)ccn1 (stereo not drawn) |
| 47.8 min | 6.33 min | 10 to 60 µg/mL (≈ 20.9 to 126 µM) | CC1CC(O)CC(C)N1C(=O)c1ccc(-c2cncc(-c3ccnc(C(C)(C)C)c3)c2)c(Cl)c1 (stereo not drawn) |
| 32.5 min | 43.7 min | 10 to 60 µg/mL (≈ 19.9 to 120 µM) | CC(C)(C)c1cc(-c2cncc(-c3ccc(C(=O)N4CCC(O)(O)C(F)(F)C4)cc3Cl)c2)ccn1 |
| 88.6 min | 28.1 min | 10 to 60 µg/mL (≈ 20.6 to 123 µM) | CC(C)(C)c1cc(-c2cncc(-c3ccc(C(=O)N4CCC(O)C(F)(F)C4)cc3Cl)c2)ccn1 (stereo not drawn) |
| 21.7 min | 12.2 min | 10 to 60 µg/mL (≈ 21.4 to 128 µM) | CC(C)(C)c1cc(-c2cncc(-c3ccc(C(=O)N4CCC(F)C(O)C4)cc3Cl)c2)ccn1 (stereo not drawn) |
| 38.3 min | 59 min | 10 to 60 µg/mL (≈ 21.6 to 129 µM) | CC(C)(C)c1cc(-c2cncc(-c3ccc(C(=O)N4CCC4C(C)(C)O)cc3Cl)c2)ccn1 (stereo not drawn) |
| 12.4 min | 7.35 min | 10 to 60 µg/mL (≈ 21.6 to 129 µM) | CC(C)(C)c1cc(-c2cncc(-c3ccc(C(=O)N4CC(C(C)(C)O)C4)cc3Cl)c2)ccn1 |
| 120 min | 1.79 min | 10 to 60 µg/mL (≈ 21.6 to 130 µM) | CC(C)(C)c1cc(-c2cncc(-c3ccc(C(=O)N4CC5(CC(O)C5)C4)cc3Cl)c2)ccn1 |
| 32 min | 10.1 min | 10 to 60 µg/mL (≈ 22.2 to 133 µM) | CC(C)(C)c1cc(-c2cncc(-c3ccc(C(=O)N4CCC[C@@H]4CO)cc3Cl)c2)ccn1 |
| 28.6 min | 5.52 min | 10 to 60 µg/mL (≈ 22.2 to 133 µM) | CC(C)(C)c1cc(-c2cncc(-c3ccc(C(=O)N4CCC[C@H]4CO)cc3Cl)c2)ccn1 |
| 28 min | 12.9 min | 10 to 60 µg/mL (≈ 22.2 to 133 µM) | CC1(O)CCN(C(=O)c2ccc(-c3cncc(-c4ccnc(C(C)(C)C)c4)c3)c(Cl)c2)C1 (stereo not drawn) |
| 38.7 min | 14.4 min | 10 to 60 µg/mL (≈ 22.9 to 138 µM) | CC(C)(C)c1cc(-c2cncc(-c3ccc(C(=O)N4CC[C@H](O)C4)cc3Cl)c2)ccn1 |
| 31.5 min | 5.01 min | 10 to 60 µg/mL (≈ 22.9 to 138 µM) | CC(C)(C)c1cc(-c2cncc(-c3ccc(C(=O)N4CC[C@@H](O)C4)cc3Cl)c2)ccn1 |
| 39.8 min | 6.72 min | 10 to 60 µg/mL (≈ 22.9 to 138 µM) | CC1(O)CN(C(=O)c2ccc(-c3cncc(-c4ccnc(C(C)(C)C)c4)c3)c(Cl)c2)C1 |
| 11 min | 11 min | < 10 µg/mL | CC(C)(C)c1cc(-c2cncc(-c3ccc(C(=O)N4CCC(F)CC4)cc3Cl)c2)ccn1 |
| 20 min | 3.17 min | 10 to 60 µg/mL (≈ 22.3 to 134 µM) | CC(C)(C)c1cc(-c2cncc(-c3ccc(C(=O)N4CC5C(O)C5C4)cc3Cl)c2)ccn1 (stereo not drawn) |
| > 120 min | 19.6 min | < 10 µg/mL | CC(C)(C)c1cc(-c2cncc(-c3ccc(NC(=O)N4CCC(O)CC4)cc3Cl)c2)ccn1 |
